Results taken from patent US20210317140A1, “Heterocyclic Compounds and Methods of Use” (MEDIVATION TECHNOLOGIES, INC, priority 2013, published 2021).

How the values were obtained:
TEC = target: T1, TEC (Homo sapiens, UniProt P42680); test: TEC kinase profiling (BTK protocol); format: biochemical; details: for IC50: 10 dose IC50; for TEC @ 0.3 μM (% Inh): 0.3 μM compound
T1 construct: purchased Reaction Biology Corporation
T1 sequence (P42680 1-631): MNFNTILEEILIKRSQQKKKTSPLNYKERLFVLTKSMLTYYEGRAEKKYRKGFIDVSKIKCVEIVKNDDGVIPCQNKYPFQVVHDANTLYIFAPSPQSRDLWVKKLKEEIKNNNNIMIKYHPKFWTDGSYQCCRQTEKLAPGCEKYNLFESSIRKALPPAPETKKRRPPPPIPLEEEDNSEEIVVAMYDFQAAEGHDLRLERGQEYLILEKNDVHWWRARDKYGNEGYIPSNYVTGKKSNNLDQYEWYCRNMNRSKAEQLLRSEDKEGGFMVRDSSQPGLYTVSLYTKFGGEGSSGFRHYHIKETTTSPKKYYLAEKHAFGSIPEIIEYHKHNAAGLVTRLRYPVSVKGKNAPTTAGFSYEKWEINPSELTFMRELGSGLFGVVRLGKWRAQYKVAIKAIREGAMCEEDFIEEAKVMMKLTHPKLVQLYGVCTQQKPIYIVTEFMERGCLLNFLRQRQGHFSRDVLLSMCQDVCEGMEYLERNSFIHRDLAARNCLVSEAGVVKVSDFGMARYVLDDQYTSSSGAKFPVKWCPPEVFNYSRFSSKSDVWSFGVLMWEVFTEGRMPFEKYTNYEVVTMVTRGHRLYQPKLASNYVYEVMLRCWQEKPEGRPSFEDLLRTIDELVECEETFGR
Experimental: BTK assay: In vitro profiling protein kinases was performed using the “HotSpot” assay platform. Briefly, specific kinase/substrate pairs along with required cofactors were prepared in reaction buffer. Compounds were prepared as 10 mM stock solutions in DMSO. Compounds were delivered into the reaction, followed 15-20 minutes later by addition of a mixture of ATP (Sigma, St. Louis Mo.) and ^33P ATP (Perkin Elmer, Waltham Mass.) to a final concentration of 10 μM. […] IC50 values and curve fits were obtained using Prism (GraphPad Software). Buffer Conditions: 20 mM Hepes (pH 7.5), 10 mM MgCl2, 1 mM EGTA, 0.02% Brij35, 0.02 mg/mL BSA, 0.1 mM Na3VO4, 2 mM DTT, 1% DMSO.

SUDHL6 cells = test: Cell anti-proliferation assay ([3H] thymidine); format: cell-based; details: Homo sapiens, SU-DHL-6, IC50 range
Experimental: Compounds of the invention were profiled in a B-lymphocyte anti-proliferation assay using SUDHL6 cells. On Day 0, SUDHL cells (7,500) were plated in RPMI media with FBS medium in a 96-well plate. On Day 1, Compounds of the invention were charged on top of the plated cells with a 1% DMSO final concentration. On Day 3, [^3H] Thymidine was added at 100 nCi/well. On Day 4, the cells were harvested using a cell harvester on a GF/C filter mat and dried in a hot air oven. Cell readout was obtained using a scintillation counter, and the activity of the compound was determined as an IC50 value.

SMILES | TEC @ 0.3 μM (% Inh) (TEC) | also measured
Nc1ncnc2c1c(-c1cc(O)cc(F)c1)nn2C1Cc2ccccc2C1 [compound 3, 3-(4-amino-1-(2,3-dihydro-1H-inden-2-yl)-1H-pyrazolo[3,4-d]pyrimidin-3-yl)-5-fluorophenol] | – | IC50 (TEC): 182 nM; IC50 (SUDHL6 cells): 1000 to 10000 nM
Nc1ncnc2c1c(-c1cc(O)cc(F)c1)nn2C1CCc2ccccc2C1 (single isomer, unassigned) [6a, 3-(4-amino-1-(1,2,3,4-tetrahydronaphthalen-2-yl)-1H-pyrazolo[3,4-d]pyrimidin-3-yl)-5-fluorophenol] | – | TEC @ 0.3 μM (% Inh) (TEC; 0.3 µM): 41.28 % Inh
Nc1ncnc2c1c(-c1cc(O)cc(F)c1)nn2C1CCc2ccccc2C1 (single isomer, unassigned) [6b, 3-(4-amino-1-(1,2,3,4-tetrahydronaphthalen-2-yl)-1H-pyrazolo[3,4-d]pyrimidin-3-yl)-5-fluorophenol] | – | TEC @ 0.3 μM (% Inh) (TEC; 0.3 µM): 27.3 % Inh
COc1cc(-c2nn(C3Cc4ccccc4C3)c3ncnc(N)c23)ccc1C [Compound No. 49, 1-(2,3-dihydro-1H-inden-2-yl)-3-(3-methoxy-4-methylphenyl)-1H-pyrazolo[3,4-d]pyrimidin-4-amine] | 44.68 % Inh | –
Nc1ncnc2c1c(-c1ccc(F)c(O)c1)nn2C1CCc2ccccc2C1 (racemic) [Compound No. 26, 5-(4-amino-1-(1,2,3,4-tetrahydronaphthalen-2-yl)-1H-pyrazolo[3,4-d]pyrimidin-3-yl)-2-fluorophenol] | 66.1 % Inh | –
Nc1ncnc2c1c(-c1ccc(Br)c(O)c1)nn2C1Cc2ccccc2C1 [compound 2, 5-(4-amino-1-(2,3-dihydro-1H-inden-2-yl)-1H-pyrazolo[3,4-d]pyrimidin-3-yl)-2-bromophenol] | – | IC50 (TEC): 100 nM
Nc1ncnc2c1c(-c1ccc(F)c(O)c1)nn2C1CCc2ccccc2C1 (single isomer, unassigned) [Compound No. 26b, 5-(4-amino-1-(1,2,3,4-tetrahydronaphthalen-2-yl)-1H-pyrazolo[3,4-d]pyrimidin-3-yl)-2-fluorophenol] | – | IC50 (TEC): 82.1 nM
Nc1ncnc2c1c(-c1ccc(F)c(O)c1)nn2C1Cc2ccccc2C1 [Compound No. 29, 5-(4-amino-1-indan-2-yl-pyrazolo[3,4-d]pyrimidin-3-yl)-2-fluoro-phenol] | – | IC50 (TEC): 20.5 nM
Nc1ncnc2c1c(-c1cc(O)cc(F)c1)nn2C1CCc2ccccc2C1 (centres unmarked) [compound 6, 3-(4-amino-1-(1,2,3,4-tetrahydronaphthalen-2-yl)-1H-pyrazolo[3,4-d]pyrimidin-3-yl)-5-fluorophenol] | – | IC50 (TEC): 280 nM; IC50 (SUDHL6 cells): 1000 to 10000 nM
Nc1ncnc2c1c(-c1ccc(Cl)c(O)c1)nn2C1Cc2ccccc2C1 [Compound No. 56, 5-[4-amino-1-(2,3-dihydro-1H-inden-2-yl)-1H-pyrazolo[3,4-d]pyrimidin-3-yl]-2-chlorophenol] | 61.02 % Inh | –
C=CC(=O)N1CC(n2nc(-c3cc(O)cc(F)c3)c3c(N)ncnc32)Cc2cc(C)ccc21 (single isomer, unassigned) [31b, 1-(3-(4-amino-3-(3-fluoro-5-hydroxyphenyl)-1H-pyrazolo[3,4-d]pyrimidin-1-yl)-6-methyl-3,4-dihydroquinolin-1(2H)-yl)prop-2-en-1-one] | 56.91 % Inh | –
Nc1ncnc2c1c(-c1cc(O)cc(F)c1)cn2C1Cc2ccccc2C1 [Compound No. 63, 3-[4-amino-7-(2,3-dihydro-1H-inden-2-yl)-7H-pyrrolo[2,3-d]pyrimidin-5-yl]-5-fluorophenol] | 88.12 % Inh | –
Nc1ncnc2c1c(-c1ccc(F)c(O)c1)nn2C1CCc2ccccc2C1 (single isomer, unassigned) [Compound No. 26a, 5-(4-amino-1-(1,2,3,4-tetrahydronaphthalen-2-yl)-1H-pyrazolo[3,4-d]pyrimidin-3-yl)-2-fluorophenol] | – | IC50 (TEC): 49.3 nM

Now from value to compound, other results behind:

TEC @ 0.3 μM (% Inh) (TEC) | SMILES | also measured
91.2 % Inh | Nc1ncnc2c1c(-c1cc(O)c(F)c(F)c1)cn2C1Cc2ccccc2C1 [Compound No. 101, 5-[4-amino-7-(2,3-dihydro-1H-inden-2-yl)-7H-pyrrolo[2,3-d]pyrimidin-5-yl]-2,3-difluorophenol] | –
42.69 % Inh | COc1ccc(-c2nn(C3Cc4ccccc4C3)c3ncnc(N)c23)cc1O [Compound No. 68, 5-[4-amino-1-(2,3-dihydro-1H-inden-2-yl)-1H-pyrazolo[3,4-d]pyrimidin-3-yl]-2-methoxyphenol] | –
−3.89 % Inh | Nc1ncnc2c1c(-c1cc(O)c(F)c(C(F)(F)F)c1)nn2C1Cc2ccccc2C1 [Compound No. 102, 5-[4-amino-1-(2,3-dihydro-1H-inden-2-yl)-1H-pyrazolo[3,4-d]pyrimidin-3-yl]-2-fluoro-3-(trifluoromethyl)phenol] | –
102.76 % Inh | Nc1ncnc2c1c(-c1ccc(Cl)c(O)c1F)nn2C1Cc2ccccc2C1 [Compound No. 100, 3-[4-amino-1-(2,3-dihydro-1H-inden-2-yl)-1H-pyrazolo[3,4-d]pyrimidin-3-yl]-6-chloro-2-fluorophenol] | –
10.01 % Inh | Nc1ncnc2c1c(-c1ccc3cc[nH]c3c1)nn2C1CCc2ccccc2C1 (racemic) [compound 18, 3-(1H-indol-6-yl)-1-(1,2,3,4-tetrahydronaphthalen-2-yl)-1H-pyrazolo[3,4-d]pyrimidin-4-amine] | –
87.72 % Inh | Nc1ncnc2c1c(-c1cc(O)c(Cl)c(Cl)c1)cn2C1Cc2ccccc2C1 [Compound No. 107, 5-[4-amino-7-(2,3-dihydro-1H-inden-2-yl)-7H-pyrrolo[2,3-d]pyrimidin-5-yl]-2,3-dichlorophenol] | –
106.37 % Inh | Nc1ncnc2c1c(-c1ccc(Cl)c(O)c1)cn2C1Cc2ccccc2C1 [Compound No. 93, 5-[4-amino-7-(2,3-dihydro-1H-inden-2-yl)-7H-pyrrolo[2,3-d]pyrimidin-5-yl]-2-chlorophenol] | –
48.29 % Inh | N#Cc1cc(-c2cn(C3Cc4ccccc4C3)c3ncnc(N)c23)cc(O)c1F [compound 115, 5-[4-amino-7-(2,3-dihydro-1H-inden-2-yl)-7H-pyrrolo[2,3-d]pyrimidin-5-yl]-2-fluoro-3-hydroxybenzonitrile] | –
71.22 % Inh | Nc1ncnc2c1c(-c1cc(O)c(F)c(F)c1)nn2C1Cc2ccccc2C1 [Compound No. 81, 5-[4-amino-1-(2,3-dihydro-1H-inden-2-yl)-1H-pyrazolo[3,4-d]pyrimidin-3-yl]-2,3-difluorophenol] | –
57.08 % Inh | C=CC(=O)N1CC(n2nc(-c3cc(O)cc(F)c3)c3c(N)ncnc32)Cc2cc(C)ccc21 (centres unmarked) [compound 31, 1-(3-(4-amino-3-(3-fluoro-5-hydroxyphenyl)-1H-pyrazolo[3,4-d]pyrimidin-1-yl)-6-methyl-3,4-dihydroquinolin-1(2H)-yl)prop-2-en-1-one] | IC50 (TEC): 24300 nM
23.9 % Inh | Nc1ncnc2c1c(-c1cc(F)c3c(c1)NCCO3)nn2C1Cc2ccccc2C1 [Compound No. 84, 1-(2,3-dihydro-1H-inden-2-yl)-3-(8-fluoro-3,4-dihydro-2H-1,4-benzoxazin-6-yl)-1H-pyrazolo[3,4-d]pyrimidin-4-amine] | –
40.21 % Inh | Nc1ncnc2c1c(-c1cc(O)cc(F)c1)nn2C1Cc2ccc(F)cc2C1 (centres unmarked) [compound 57, 3-[4-amino-1-(5-fluoro-2,3-dihydro-1H-inden-2-yl)-1H-pyrazolo[3,4-d]pyrimidin-3-yl]-5-fluorophenol] | –
89.37 % Inh | Nc1ncnc2c1c(-c1cc(O)c(F)c(Cl)c1)cn2C1Cc2ccccc2C1 [compound 110, 5-[4-amino-7-(2,3-dihydro-1H-inden-2-yl)-7H-pyrrolo[2,3-d]pyrimidin-5-yl]-3-chloro-2-fluorophenol] | –
